Measured values from ChEMBL document CHEMBL1145613, “Tubulysin analogs incorporating desmethyl and dimethyl tubuphenylalanine derivatives” (Bioorg Med Chem Lett, 2008).

Tests used:
[1] = test system: 1A9; test: Antiproliferative activity against human 1A9 cells; type: functional, cell-based
[2] = Inhibition of rat brain tubulin polymerization

SMILES	IC50 [2] [µM]	IC50 [1] [µM]
CC[C@H](C)[C@H](NC(=O)[C@@H]1CCCN1C)C(=O)N[C@H](CC(=O)c1nc(C(=O)N[C@H](CCC(=O)O)Cc2ccccc2)cs1)C(C)C	11	50
CC[C@H](C)[C@H](NC(=O)[C@@H]1CCCCN1C)C(=O)N[C@H](CC(=O)c1nc(C(=O)N[C@H](CCC(=O)O)Cc2ccccc2)cs1)C(C)C	13	> 50
CC[C@H](C)[C@H](NC(=O)[C@@H]1CCCCN1)C(=O)N[C@H](CC(=O)c1nc(C(=O)N[C@H](CCC(=O)O)Cc2ccccc2)cs1)C(C)C	> 20	> 50
CC[C@H](C)[C@H](NC(=O)[C@H]1CCCN1)C(=O)N[C@H](CC(=O)c1nc(C(=O)N[C@H](CCC(=O)O)Cc2ccccc2)cs1)C(C)C	> 20	> 50
CC[C@H](C)[C@H](NC(=O)[C@@H]1CCCN1)C(=O)N[C@H](CC(=O)c1nc(C(=O)N[C@H](CCC(=O)O)Cc2ccccc2)cs1)C(C)C	> 20	> 50
COc1ccc(/C=C\c2cc(OC)c(OC)c(OC)c2)cc1O [COMBRETASTATIN A4]	–	0.0036
CC[C@H](C)[C@H](NC(=O)[C@H]1CCCCN1C)C(=O)N(COC(=O)CC(C)C)[C@H](C[C@@H](OC(C)=O)c1nc(C(=O)N[C@@H](Cc2ccc(O)cc2)C[C@H](C)C(=O)O)cs1)C(C)C [TUBULYSIN-A]	0.75	–

The next lines start with results.

IC50 [2] [µM]	SMILES	IC50 [1] [µM]
4.4	CC[C@H](C)[C@H](NC(=O)[C@H]1CCCCN1)C(=O)N[C@H](CC(=O)c1nc(C(=O)N[C@H](CCC(=O)O)Cc2ccccc2)cs1)C(C)C	> 50
2.7	CC[C@H](C)[C@H](NC(=O)[C@H]1CCCN1C)C(=O)N[C@H](CC(=O)c1nc(C(=O)N[C@@H](Cc2ccccc2)CC(C)(C)C(=O)O)cs1)C(C)C	3.2
1.5	CC[C@H](C)[C@H](NC(=O)[C@H]1CCCCN1C)C(=O)N[C@H](CC(=O)c1nc(C(=O)N[C@@H](Cc2ccccc2)CC(C)(C)C(=O)O)cs1)C(C)C	0.3
2.3	CC[C@H](C)[C@H](NC(=O)[C@H]1CCCN1C)C(=O)N[C@H](CC(=O)c1nc(C(=O)N[C@H](CCC(=O)O)Cc2ccccc2)cs1)C(C)C	24
0.6	CC[C@H](C)[C@H](NC(=O)[C@H]1CCCCN1C)C(=O)N[C@H](CC(=O)c1nc(C(=O)N[C@H](CCC(=O)O)Cc2ccccc2)cs1)C(C)C	4
0.7	CN[C@H](C(=O)N[C@H](C(=O)N(C)[C@H](/C=C(\C)C(=O)O)C(C)C)C(C)(C)C)C(C)(C)c1ccccc1 [TALTOBULIN]	0.0003
